# System: polyclonal antibody raised to Immunogen II
# Assay: Competitive biochip immunoassay (Evidence Investigator) with Hapten-1 HRP detecting agent
# Type: binding, sheep
# Settings: for % Cross-reactivity: %CR calculated from IC50 ratio x 100; for IC50: concentration causing 50% displacement of signal, competition with Hapten-1 HRP for immobilised polyclonal antibody, 30 minutes at 30° C.
# Method: A semi-automated Evidence Investigator analyser (Randox Laboratories Ltd., Crumlin, UK) was used as the platform for a biochip assay for the detection of venlafaxine and O-desmethylvenlafaxine. Immunogen II was administered to adult sheep on a monthly basis to provide target-specific polyclonal antisera. IgG was extracted from the antisera, and the purified antibody was immobilised on a biochip (9 mm×9 mm). The assay is based on competition for binding sites of a polyclonal antibody between Hapten-1HRP detecting agent (Example 10) and venlafaxine and O-desmethylvenlafaxine and potential cross-reactants. The antibody was immobilised and stabilised onto the biochip surface as previously described (Fitzgerald et al., 2005). Assay diluent (155 μL), calibrator/venlafaxine and O-desmethylvenlafaxine or potential cross-reactant (25 μL) followed by Hapten-1 HRP detecting agent (120 μL) were added to the appropriate biochip. The biochips were then incubated for 30 minutes at 30° C. on a thermoshaker set at 370 rpm. The biochips were then subjected to 2 quick wash cycles using the wash buffer provided, followed by 4×2 minute wash cycles. 250 μL of signal (1:1 luminol+peroxide, v/v) was then added to each biochip, and after 2 minutes the biochip carrier was imaged in the Evidence Investigator analyser. Calibration curves were generated and these were used to determine the sensitivity and specificity of the immunoassay for venlafaxine, O-desmethylvenlafaxine and potential cross-reactants.
# Table 1, cross-reactivity being calculated according to the following formula: %CR=IC50,O-desmethylvenlafaxine/IC50,CR×100 where % CR is the percentage cross-reactivity, IC50, O-desmethylvenlafaxine is the concentration of O-desmethylvenlafaxine which causes 50% displacement of signal and IC50, CR is the concentration of venlafaxine or potential cross-reactant that causes 50% displacement of signal.
structure (smiles),measurement,value
"CN(C)CC(c1ccc(O)cc1)C1(O)CCCCC1 (racemic) [O-Desmethylvenlafaxine, (RS)-1-[2-(dimethylamino)-1-(4-hydroxyphenyl)ethyl]cyclohexanol]",% Cross-reactivity,48.4%
same,IC50,0.03786 µg/mL
"COc1ccc(C(CN(C)C)C2(O)CCCCC2)cc1 (racemic) [Venlafaxine, (RS)-1-[2-(dimethylamino)-1-(4-methoxyphenyl)ethyl]cyclohexanol]",% Cross-reactivity,100%
same,IC50,0.01831 µg/mL
CCOC(=O)C1(c2ccccc2)CCN(C)CC1 [Meperidine],% Cross-reactivity,<5.7%
COC(=O)C(c1ccccc1)C1CCCCN1 (centres unmarked) [Methylphenidate],% Cross-reactivity,<5.7%
same,IC50,>0.32 µg/mL
CNCC1CCCCC1(O)c1cccc(OC)c1 (centres unmarked) [N-Desmethyltramadol],% Cross-reactivity,<5.7%
same,IC50,>0.32 µg/mL
CN(C)C[C@H]1CCCC[C@]1(O)c1cccc(O)c1 [O-Desmethyltramadol],% Cross-reactivity,<5.7%
same,IC50,>0.32 µg/mL
c1ccc(C2(N3CCCCC3)CCCCC2)cc1 [PCP],% Cross-reactivity,<5.7%
same,IC50,>0.32 µg/mL
COc1cccc(C2(O)CCCCC2CN(C)C)c1 (centres unmarked) [Tramadol],% Cross-reactivity,<5.7%
